Measured values as given in ChEMBL document CHEMBL1138028, “Synthesis and HIV-1 integrase inhibitory activity of dimeric and tetrameric analogs of indolicidin” (Bioorg Med Chem Lett, 2004).

What was measured:
[1] = target: T1, Human immunodeficiency virus type 1 integrase (Human immunodeficiency virus 1, UniProt Q7ZJM1); experiment: Concentration required for inhibition of HIV-1 integrase mediated 3'-end processing
[2] = target: T1, Human immunodeficiency virus type 1 integrase; experiment: Concentration required for inhibition of HIV-1 integrase mediated strand transfer

T1 sequence (Q7ZJM1 whole entry): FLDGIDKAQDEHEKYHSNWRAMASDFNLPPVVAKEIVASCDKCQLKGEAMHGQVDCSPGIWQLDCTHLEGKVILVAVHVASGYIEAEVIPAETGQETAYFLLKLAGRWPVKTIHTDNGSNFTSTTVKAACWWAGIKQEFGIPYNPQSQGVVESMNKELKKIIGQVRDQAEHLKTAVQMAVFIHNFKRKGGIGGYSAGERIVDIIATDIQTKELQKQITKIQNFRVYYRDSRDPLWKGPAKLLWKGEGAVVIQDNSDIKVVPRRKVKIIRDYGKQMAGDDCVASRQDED

Compound	IC50 [1] [µM]	IC50 [2] [µM]
CC[C@H](C)[C@H](N)C(=O)N[C@@H](CC(C)C)C(=O)N1CCC[C@H]1C(=O)N[C@@H](Cc1c[nH]c2ccccc12)C(=O)N[C@@H](CCCCN)C(=O)N[C@@H](Cc1c[nH]c2ccccc12)C(=O)N1CCC[C@H]1C(=O)N[C@@H](Cc1c[nH]c2ccccc12)C(=O)N[C@@H](Cc1c[nH]c2ccccc12)C(=O)N1CCC[C@H]1C(=O)N[C@@H](Cc1c[nH]c2ccccc12)C(=O)N[C@@H](CCCN=C(N)N)C(=O)N[C@@H](CCCN=C(N)N)C(N)=O [Indolicidin]	60	57
H-ILPWKWPWWPWP-NH2	180	80
CC[C@H](C)[C@H](N)C(=O)N[C@@H](CC(C)C)C(=O)N1CCC[C@H]1C(=O)N[C@@H](Cc1c[nH]c2ccccc12)C(=O)N[C@@H](CCCCN)C(=O)N[C@@H](Cc1c[nH]c2ccccc12)C(=O)N1CCC[C@H]1C(=O)N[C@@H](Cc1c[nH]c2ccccc12)C(=O)N[C@@H](Cc1c[nH]c2ccccc12)C(=O)N1CCC[C@H]1C(=O)N[C@@H](Cc1c[nH]c2ccccc12)C(=O)N1CCC[C@H]1C(=O)N1CCC[C@H]1C(=O)NCCCCC(NC(=O)[C@@H]1CCCN1C(=O)[C@@H]1CCCN1C(=O)[C@H](Cc1c[nH]c2ccccc12)NC(=O)[C@@H]1CCCN1C(=O)[C@H](Cc1c[nH]c2ccccc12)NC(=O)[C@H](Cc1c[nH]c2ccccc12)NC(=O)[C@@H]1CCCN1C(=O)[C@H](Cc1c[nH]c2ccccc12)NC(=O)[C@H](CCCCN)NC(=O)[C@H](Cc1c[nH]c2ccccc12)NC(=O)[C@@H]1CCCN1C(=O)[C@H](CC(C)C)NC(=O)[C@@H](N)[C@@H](C)CC)C(=O)NCCCCC(NC(=O)C(CCCCNC(=O)[C@@H]1CCCN1C(=O)[C@@H]1CCCN1C(=O)[C@H](Cc1c[nH]c2ccccc12)NC(=O)[C@@H]1CCCN1C(=O)[C@H](Cc1c[nH]c2ccccc12)NC(=O)[C@H](Cc1c[nH]c2ccccc12)NC(=O)[C@@H]1CCCN1C(=O)[C@H](Cc1c[nH]c2ccccc12)NC(=O)[C@H](CCCCN)NC(=O)[C@H](Cc1c[nH]c2ccccc12)NC(=O)[C@@H]1CCCN1C(=O)[C@H](CC(C)C)NC(=O)[C@H](N)[C@@H](C)CC)NC(=O)[C@@H]1CCCN1C(=O)[C@@H]1CCCN1C(=O)[C@H](Cc1c[nH]c2ccccc12)NC(=O)[C@@H]1CCCN1C(=O)[C@H](Cc1c[nH]c2ccccc12)NC(=O)[C@H](Cc1c[nH]c2ccccc12)NC(=O)[C@@H]1CCCN1C(=O)[C@H](Cc1c[nH]c2ccccc12)NC(=O)[C@H](CCCCN)NC(=O)[C@H](Cc1c[nH]c2ccccc12)NC(=O)[C@@H]1CCCN1C(=O)[C@H](CC(C)C)NC(=O)[C@@H](N)[C@@H](C)CC)C(N)=O (stereo not given in full)	0.6	0.6
H-ILPWKWPWWPWPP-NH2	16	13
H-ILAWKWAWWAWPP-NH2	54	41

Next, values leading:

IC50 [1] [µM]	IC50 [2] [µM]	Compound
2.3	2.3	CC[C@H](C)[C@@H](N)C(=O)N[C@H](CC(C)C)C(=O)N1CCC[C@@H]1C(=O)N[C@H](Cc1c[nH]c2ccccc12)C(=O)N[C@H](CCCCN)C(=O)N[C@H](Cc1c[nH]c2ccccc12)C(=O)N1CCC[C@@H]1C(=O)N[C@H](Cc1c[nH]c2ccccc12)C(=O)N[C@H](Cc1c[nH]c2ccccc12)C(=O)N1CCC[C@@H]1C(=O)N[C@H](Cc1c[nH]c2ccccc12)C(=O)N1CCC[C@@H]1C(=O)N1CCC[C@@H]1C(=O)NCCCCC(NC(=O)[C@H]1CCCN1C(=O)[C@H]1CCCN1C(=O)[C@@H](Cc1c[nH]c2ccccc12)NC(=O)[C@H]1CCCN1C(=O)[C@@H](Cc1c[nH]c2ccccc12)NC(=O)[C@@H](Cc1c[nH]c2ccccc12)NC(=O)[C@H]1CCCN1C(=O)[C@@H](Cc1c[nH]c2ccccc12)NC(=O)[C@@H](CCCCN)NC(=O)[C@@H](Cc1c[nH]c2ccccc12)NC(=O)[C@H]1CCCN1C(=O)[C@@H](CC(C)C)NC(=O)[C@H](N)[C@@H](C)CC)C(N)=O (stereo not given in full)
2.8	4.9	CC[C@H](C)[C@H](N)C(=O)N[C@@H](CC(C)C)C(=O)N1CCC[C@H]1C(=O)N[C@@H](Cc1c[nH]c2ccccc12)C(=O)N[C@@H](CCCCN)C(=O)N[C@@H](Cc1c[nH]c2ccccc12)C(=O)N1CCC[C@H]1C(=O)N[C@@H](Cc1c[nH]c2ccccc12)C(=O)N[C@@H](Cc1c[nH]c2ccccc12)C(=O)N1CCC[C@H]1C(=O)N[C@@H](Cc1c[nH]c2ccccc12)C(=O)N1CCC[C@H]1C(=O)N1CCC[C@H]1C(=O)NCCCCC(NC(=O)[C@@H]1CCCN1C(=O)[C@@H]1CCCN1C(=O)[C@H](Cc1c[nH]c2ccccc12)NC(=O)[C@@H]1CCCN1C(=O)[C@H](Cc1c[nH]c2ccccc12)NC(=O)[C@H](Cc1c[nH]c2ccccc12)NC(=O)[C@@H]1CCCN1C(=O)[C@H](Cc1c[nH]c2ccccc12)NC(=O)[C@H](CCCCN)NC(=O)[C@H](Cc1c[nH]c2ccccc12)NC(=O)[C@@H]1CCCN1C(=O)[C@H](CC(C)C)NC(=O)[C@@H](N)[C@@H](C)CC)C(N)=O (stereo not given in full)
> 333	> 333	H-ILPWGWPWWPWPP-NH2
49	19	CC[C@H](C)[C@H](N)C(=O)N[C@@H](CC(C)C)C(=O)N1CCC[C@H]1C(=O)N[C@@H](Cc1c[nH]c2ccccc12)C(=O)NCC(=O)N[C@@H](Cc1c[nH]c2ccccc12)C(=O)N1CCC[C@H]1C(=O)N[C@@H](Cc1c[nH]c2ccccc12)C(=O)N[C@@H](Cc1c[nH]c2ccccc12)C(=O)N1CCC[C@H]1C(=O)N[C@@H](Cc1c[nH]c2ccccc12)C(=O)N[C@@H](CCCN=C(N)N)C(=O)N[C@@H](CCCN=C(N)N)C(N)=O
185	215	H-LPWKWPWWPWPP-NH2
